Data published in patent EP4129284B1, “SERTACONAZOL FOR PROVIDING A SPORISTATIC AND/OR SPORICIDAL EFFECT” (Dr. Pfleger Arzneimittel GmbH, priority 2021, dated 2023).

How the values were obtained:
T. rubrum = experiment: Full skin model infected with spores, treatment, histology (PAS-staining); type: cell-based, Trichophyton rubrum; details: for spread of T. rubrum: up to 72 h after application, ciclopiroxolamin 400 µg/mL, terbinafin 0.050 µg/mL, histology vs infected untreated control; for outgrowth of the spores of T. rubrum: sertaconazol 0.025 µg/mL, Fig. 5
Source text: (§1) For an application in vivo, there is the additional requirement for the antimycotic substances to evoke a targeted antimycotic activity in the presence of human cells. Thus, 3D-cell-cultures such as full skin models are used to simulate the in vivo conditions. Such full skin models are for example described in Reddersen K, Wiegand C, Elsner P, Hipler UC. Three-dimensional human skin model infected with Staphylococcus aureus as a tool for evaluation of bioactivity and biocompatibility of antiseptics. Int J Antimicrob Agents. 2019; 54(3):283-291; Wiegand C, Fink S, Beier O, Horn K, Pfuch A, Schimanski A, Grünler B, Hipler UC, Elsner P. Dose- and Time-Dependent Cellular Effects of Cold Atmospheric Pressure Plasma Evaluated in 3D Skin Models. Skin Pharmacol Physiol. 2016;29(5):257-265. Particularly, such full skin models are made of a collagen matrix, which is colonized with primary human fibroblasts, and a fully differentiated epidermis made of primary human keratinocytes. For the experiments, the model is infected in vitro with spores, such that a determination of the sporistatic or sporicidal influence of the substances to be examined at in vivo relevant conditions is allowed. Compared to a 2D-model, the 3D full skin model has the advantage that the cells are in their natural three-dimensional surrounding and show a corresponding behaviour. Such, the antimycotic and sporistatic or sporicidal effects can be examined in situ and in the presence of human cells.
The spore suspensions and the solutions of sertaconazol, ciclopiroxolamin and terbinafin were prepared as in Example 1, wherein the respective test concentrations were obtained by diluting these solutions in ultrapure water (WFI; Fresenius Kabi) instead of SGB (Merck). Full skin models were produced as previously described [Reddersen K, Wiegand C, Elsner P, Hipler UC. Three-dimensional human skin model infected with Staphylococcus aureus as a tool for evaluation of bioactivity and biocompatibility of antiseptics. Int J Antimicrob Agents. 2019; 54(3):283-291; Wiegand C, Fink S, Beier O, Horn K, Pfuch A, Schimanski A, Grünler B, Hipler UC, Elsner P. Dose- and Time-Dependent Cellular Effects of Cold Atmospheric Pressure Plasma Evaluated in 3D Skin Models. Skin Pharmacol Physiol. 2016;29(5):257-265].Particularly, normal human dermal fibroblasts (NHDF; Lot 1060702.1, Promocell) and normal human epidermal keratinocytes (NHEK; Lot 9100102, Promocell) were used. Fibroblasts were cultivated in Dulbecco's modified eagle medium (DMEM; Lot MC09049P, Amimed), with 2% foetal calf serum (Lot P160509; PAN), 5 ng/mL hFGF (Lot 0329586; novoprotein) and 5 µg/ml Insulin (Lot H07443P, AMIMED) at 37°C and a 5% CO2 atmosphere. […]

C. albicans = experiment: as above; type: cell-based, Candida albicans; details: over 72 h, sertaconazol 800, ciclopiroxolamin 400, terbinafin 1600 µg/mL, Fig. 7
Source text: as §1
The spore suspensions and the solutions of sertaconazol, ciclopiroxolamin and terbinafin were prepared as in Example 1, wherein the respective test concentrations were obtained by diluting these solutions in ultrapure water (WFI; Fresenius Kabi) instead of SGB (Merck). Full skin models were produced as previously described [Reddersen K, Wiegand C, Elsner P, Hipler UC. […] 2019; 54(3):283-291; Wiegand C, Fink S, Beier O, Horn K, Pfuch A, Schimanski A, Grünler B, Hipler UC, Elsner P. Dose- and Time-Dependent Cellular Effects of Cold Atmospheric Pressure Plasma Evaluated in 3D Skin Models. […]

SMILES: Cc1cc(C2CCCCC2)n(O)c(=O)c1 [Ciclopiroxolamin, ciclopiroxolamin]
- spread of T. rubrum (T. rubrum): reduce the spread of T. rubrum but could not inhibit it
- outgrowth of C. albicans (C. albicans): much lower effect

SMILES: Clc1ccc(C(Cn2ccnc2)OCc2csc3c(Cl)cccc23)c(Cl)c1 (stereo not shown) [Sertaconazol, sertaconazol]
- outgrowth of the spores of T. rubrum (T. rubrum; 48 h treatment): inhibit the outgrowth
- outgrowth of the spores of T. rubrum (T. rubrum; 72 h treatment): reduce the outgrowth
- outgrowth of C. albicans (C. albicans): clearly reduced

SMILES: CN(C/C=C/C#CC(C)(C)C)Cc1cccc2ccccc12 [Terbinafin, terbinafin]
- spread of T. rubrum (T. rubrum): did not have any effect
- outgrowth of C. albicans (C. albicans): much lower effect
